In patent US10328077B2 (CELGENE CORPORATION, priority 2016, dated 2019):

What was measured:
P-gp (MDR1) = P-gp (MDR1) (Homo sapiens (Human), UniProt P08183); experiment: Permeability in MDR1-MDCK cells; type: in vitro ADME
LXFS 1129 SCLC PDX model = experiment: LXFS 1129 SCLC PDX model; design: species or system mice; conditions: female, NMRI-Foxnlnu, mouse, in vivo, oral, read-out: AUC0-24
[1] = test system: LXFS 1129 SCLC patient-derived xenograft; experiment: LXFS 1129 SCLC PDX model; design: species or system mice; conditions: mouse, in vivo
[2] = 4-week oral gavage pivotal toxicity study with 4-week recovery in dogs (incl. ECG, TK); type: in vivo, Beagle dogs; conditions: for AUC(0-t): Beagle, po, AUC0-168
Procedure: The QTc interval was calculated using the Fridericia method.

CYP2B6 mRNA = experiment: CYP induction in cryopreserved human hepatocytes, CYP2B6; type: in vitro ADME; conditions: 0.03 to 10 μM, up to 3 days
[3] = 4-week toxicity study with 4-week recovery in mice (incl. TK)
[4] = Pharmacokinetics after IV and oral dose, dogs; type: in vivo, Beagle dogs; conditions: dog, plasma
[5] = test system: LXFS 573 SCLC patient-derived xenograft; experiment: LXFS 573 SCLC PDX model (monotherapy); type: in vivo, mice; conditions: for % TGI / TGI: Day 28
in vivo = conditions: Beagle, dog, po; for AUC(0-t): AUC0-96
[6] = Pharmacokinetics after IV and oral dose, rats; type: in vivo, Sprague Dawley rats; conditions: for half-life: read-out: t1/2, z (converted)
[7] = test system: ST18 and FREM2 gene expression in MKL-1 or MS-1 tumors; experiment: qRT-PCR of candidate PD biomarker genes in hMCC xenografts (dose-response); type: in vivo, mice; conditions: 1, 2.5, or 5 mg/kg PO BID×4.5, both models
Procedure: Female NSG mice bearing palpable hMCC MKL-1 and MS-1 tumors were randomized into four groups of three mice each. Three groups were orally administered Compund A as monotherapy at 1, 2.5, or 5 mg/kg on a twice daily dosing schedule for nine doses (BID×4.5). The fourth group was orally administered vehicle as a control on the BID schedule. Four hours after the last dosing, tumors were collected into RNAlater and stored frozen.
Total RNA was eluted in RNase-free water and analyzed by qRT-PCR.

LXFS 615 SCLC PDX model = type: in vivo, mice; conditions: female, NMRI-Foxnlnu, mouse, oral; 5 mg base/kg, plasma after final dose; read-out: AUC0-24
[8] = test system: LXFS 615 SCLC patient-derived xenograft; experiment: LXFS 615 SCLC PDX model; type: in vivo, mice
[9] = Day 1, 5 mg base/kg/dose oral, 5 days on/2 days off, F
[10] = Day 1, 5 mg base/kg/dose oral, 5 days on/2 days off, M
[11] = Day 1, 15 mg base/kg/dose oral, 5 days on/2 days off, M
[12] = Day 1, 25 mg base/kg/dose oral, QODx3/week, F
[13] = Day 1, 25 mg base/kg/dose oral, QODx3/week, M
[14] = Day 1, 45 mg base/kg/dose oral, 5 days on/2 days off, F
[15] = Day 1, 45 mg base/kg/dose oral, 5 days on/2 days off, M
[16] = Day 26, 5 mg base/kg/dose oral, 5 days on/2 days off, F
[17] = Day 26, 5 mg base/kg/dose oral, 5 days on/2 days off, M
[18] = Day 26, 15 mg base/kg/dose oral, 5 days on/2 days off, F
[19] = Day 26, 25 mg base/kg/dose oral, QODx3/week, F
[20] = Day 26, 25 mg base/kg/dose oral, QODx3/week, M
[21] = Day 26, 45 mg base/kg/dose oral, 5 days on/2 days off, F
[22] = Day 26, 45 mg base/kg/dose oral, 5 days on/2 days off, M
[23] = Beagle, male, single IV dose 1 mg
[24] = Beagle, male, single oral dose 1 mg base/kg
[25] = Beagle, male, single oral dose 3 mg base/kg
[26] = Beagle, male, single oral dose 6 mg base/kg
[27] = Sprague Dawley, plasma, rat, female, single IV dose 5 mg
[28] = Sprague Dawley, plasma, rat, female, single oral dose 5 mg base/kg
[29] = Sprague Dawley, plasma, rat, female, single oral dose 15 mg base/kg
[30] = Sprague Dawley, plasma, rat, female, single oral dose 50 mg base/kg

Chain of P-gp (MDR1) (P08183 whole entry): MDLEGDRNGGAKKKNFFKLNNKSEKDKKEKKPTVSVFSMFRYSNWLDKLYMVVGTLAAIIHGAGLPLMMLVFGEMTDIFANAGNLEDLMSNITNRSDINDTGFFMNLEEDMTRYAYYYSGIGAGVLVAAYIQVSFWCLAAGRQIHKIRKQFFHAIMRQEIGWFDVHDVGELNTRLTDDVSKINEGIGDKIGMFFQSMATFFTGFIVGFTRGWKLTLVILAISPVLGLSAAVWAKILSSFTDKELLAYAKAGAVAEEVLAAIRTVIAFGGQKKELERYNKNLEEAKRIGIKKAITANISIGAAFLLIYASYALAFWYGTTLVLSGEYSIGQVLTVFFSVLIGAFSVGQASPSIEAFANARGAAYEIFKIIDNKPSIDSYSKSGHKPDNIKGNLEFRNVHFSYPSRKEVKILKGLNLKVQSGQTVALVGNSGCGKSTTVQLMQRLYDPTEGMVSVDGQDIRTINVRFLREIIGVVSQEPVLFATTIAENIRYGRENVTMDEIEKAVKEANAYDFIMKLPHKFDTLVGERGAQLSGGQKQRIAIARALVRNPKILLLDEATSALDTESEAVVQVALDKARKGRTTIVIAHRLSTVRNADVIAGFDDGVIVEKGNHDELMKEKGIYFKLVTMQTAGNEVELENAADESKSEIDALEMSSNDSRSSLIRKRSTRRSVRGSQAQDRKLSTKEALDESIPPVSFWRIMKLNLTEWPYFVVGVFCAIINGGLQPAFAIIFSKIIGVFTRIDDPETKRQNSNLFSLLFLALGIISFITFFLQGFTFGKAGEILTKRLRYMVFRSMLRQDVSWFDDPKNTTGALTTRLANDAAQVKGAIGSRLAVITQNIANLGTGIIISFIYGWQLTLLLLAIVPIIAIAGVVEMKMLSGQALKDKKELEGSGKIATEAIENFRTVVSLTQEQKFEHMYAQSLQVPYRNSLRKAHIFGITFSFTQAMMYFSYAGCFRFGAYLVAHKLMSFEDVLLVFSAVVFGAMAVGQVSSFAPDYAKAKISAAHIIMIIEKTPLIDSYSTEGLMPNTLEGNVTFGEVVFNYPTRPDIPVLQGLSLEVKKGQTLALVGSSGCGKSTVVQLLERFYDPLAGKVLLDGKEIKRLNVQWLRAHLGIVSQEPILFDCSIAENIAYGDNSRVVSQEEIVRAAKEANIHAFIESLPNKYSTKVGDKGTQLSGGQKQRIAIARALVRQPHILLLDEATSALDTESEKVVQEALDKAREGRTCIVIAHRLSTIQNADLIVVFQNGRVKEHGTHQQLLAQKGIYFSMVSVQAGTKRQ

COc1ccc(-c2c(-c3ccc(C#N)c(F)c3)nc(N3CCC(N)CC3)n(C)c2=O)cc1F [Compound A, 4-[2-(4-amino-piperidin-1-yl)-5-(3-fluoro-4-methoxy-phenyl)-1-methyl-6-oxo-1,6-dihydro-pyrimidin-4-yl]-2-fluoro-benzonitrile] showed a Papp A→B (P-gp (MDR1)) of 0.5 ×10⁻⁶ cm/s, a Papp B→A (P-gp (MDR1)) of 16.5 ×10⁻⁶ cm/s and an AUC(0-t) (LXFS 1129 SCLC PDX model; 1.5 mg base/kg) of 243 ng·h/mL. For the same molecule, the AUC(0-t) (LXFS 1129 SCLC PDX model; 5 mg base/kg) was 1260 ng·h/mL, the “mean body weight loss” value [1] was < 6% and the “NOEL for CV and respiratory changes” value ([2]; BIW oral) was 0.375 mg base/kg/dose. For the same molecule, the “HNSTD and NOAEL” value ([2]; QW or BIW dose schedule) was < 0.375 mg base/kg/dose, the “NOEL for CV and respiratory changes” value ([2]; QW oral) was 0.75 mg base/kg/dose and the reversibility of findings ([2]; dog, in vivo) was “complete recovery”. For the same molecule, the AUC(0-t) ([2]; female, dog, in vivo) was 435 ng·h/mL, the AUC(0-t) ([2]; male, dog, in vivo) was 503 ng·h/mL and the moribund euthanasia ([2]; weekly oral 0.375 to 1.5 mg base/kg, Days 13 to 23) was 11 animals. The primary toxicities ([2]; ≥0.375 mg base/kg/dose, QW or BIW) was “mucosal ulceration, acute and/or subacute inflammation, and mucosal epithelial atrophy of GI tract tissues”, the “increase in CYP2B6 mRNA over vehicle control” value (CYP2B6 mRNA) was < 2 fold and the AUC0-24 [3, 9] was 1500 ng·h/mL. It also gave a Cmax [3, 9] of 201 ng/mL, an AUC0-24 [3, 10] of 2270 ng·h/mL and a Cmax [3, 10] of 230 ng/mL. The AUC0-24 [3, 11] was 13000 ng·h/mL, the Cmax [3, 11] was 1020 ng/mL and the AUC0-24 [3, 12] was 20300 ng·h/mL. For the same molecule, the Cmax [3, 12] was 1830 ng/mL, the AUC0-24 [3, 13] was 21900 ng·h/mL and the Cmax [3, 13] was 1530 ng/mL. It also gave an AUC0-24 [3, 14] of 36300 ng·h/mL, a Cmax [3, 14] of 3570 ng/mL and an AUC0-24 [3, 15] of 35200 ng·h/mL. The Cmax [3, 15] was 3130 ng/mL, the AUC0-24 [3, 16] was 2410 ng·h/mL and the Cmax [3, 16] was 276 ng/mL. The AUC0-24 [3, 17] was 2010 ng·h/mL, the Cmax [3, 17] was 276 ng/mL and the AUC0-24 [3, 18] was 8640 ng·h/mL. The Cmax [3, 18] was 769 ng/mL, the AUC0-24 [3, 19] was 17500 ng·h/mL and the Cmax [3, 19] was 1740 ng/mL. The AUC0-24 [3, 20] was 17800 ng·h/mL, the Cmax [3, 20] was 1450 ng/mL and the AUC0-24 [3, 21] was 26500 ng·h/mL. The Cmax [3, 21] was 2130 ng/mL, the AUC0-24 [3, 22] was 29000 ng·h/mL and the Cmax [3, 22] was 2620 ng/mL. The NOAEL ([3]; QD×5/week schedule) was 5 mg base/kg/dose, the STD10 ([3]; QD×5/week schedule) was > 45 mg base/kg/dose and the STD10 ([3]; QOD×3 weekly schedule) was > 25 mg base/kg/dose. The half-life ([4]; Beagle (dogs), IV, non-rodents (dogs, monkeys), read-out: half-life) was 12 to 20 h, the bioavailability ([4]; Beagle, po, dogs and monkeys, read-out: oral bioavailability) was 82 to 100% and the AUC(0-inf) [4, 23] was 1940 ng·h/mL. It also gave an AUC(0-t) [4, 23] of 1300 ng·h/mL, a clearance [4, 23] of 9 mL/min/kg and a Vd ([4]; Beagle, male, single IV dose 1 mg, mean (SD), read-out: Vss) of 11.1 L/kg. For the same molecule, the half-life ([4]; Beagle, male, single IV dose 1 mg, read-out: t1/2, z (converted)) was 15.5 h, the AUC(0-t) [4, 24] was 1090 ng·h/mL and the Cmax [4, 24] was 69 ng/mL. The Tmax [4, 24] was 2 h, the bioavailability ([4]; Beagle, male, single oral dose 1 mg base/kg, read-out: % F) was 84% and the half-life ([4]; Beagle, male, single oral dose 1 mg base/kg, read-out: t1/2, z (converted)) was 15 h. It also gave an AUC(0-t) [4, 25] of 3790 ng·h/mL, a Cmax [4, 25] of 298 ng/mL and a Tmax [4, 25] of 1 h. The bioavailability ([4]; Beagle, male, single oral dose 3 mg base/kg, read-out: % F) was 100%, the half-life ([4]; Beagle, male, single oral dose 3 mg base/kg, read-out: t1/2, z (converted)) was 19.4 h and the AUC(0-t) [4, 26] was 8790 ng·h/mL. It also gave a Cmax [4, 26] of 627 ng/mL, a Tmax [4, 26] of 1 h and a bioavailability ([4]; Beagle, male, single oral dose 6 mg base/kg, read-out: % F) of 100%. For the same molecule, the half-life ([4]; Beagle, male, single oral dose 6 mg base/kg, read-out: t1/2, z (converted)) was 17.8 h, the “Median Tumor Volume Day 28” value ([5]; 5 mg base/kg PO QDx28) was 308.3 mm^3 and the “Median Tumor Volume Diff. (Day 28 - Day 0)” value ([5]; 5 mg base/kg PO QDx28) was 199.9 mm^3. For the same molecule, the “% TGI” value ([5]; 5 mg base/kg PO QDx28) was 78%, the TGI ([5]; 5 mg base/kg oral) was 78% and the “Median Tumor Volume Day 28” value ([5]; 7.5 mg base/kg PO QDx28) was 496.6 mm^3. For the same molecule, the “Median Tumor Volume Diff. (Day 28 - Day 0)” value ([5]; 7.5 mg base/kg PO QDx28) was 383.4 mm^3, the “Median Tumor Volume Day 28” value ([5]; 10 mg base/kg PO QDx28) was 376.8 mm^3 and the “Median Tumor Volume Diff. (Day 28 - Day 0)” value ([5]; 10 mg base/kg PO QDx28) was 263.0 mm^3. For the same molecule, the “% TGI” value ([5]; 10 mg base/kg PO QDx28) was 71%, the TGI ([5]; 10 mg/kg oral) was 71% and the “mean body weight loss” value ([5]; mouse, in vivo) was ≤ 3%. The AUC(0-t) (in vivo; both, 0.125 mg/kg) was 127 ng·h/mL, the Cmax (in vivo; both, 0.125 mg/kg, Cmax) was 5.26 ng/mL and the Cmax (in vivo; both, 0.125 mg/kg, combined Day 15 mean Cmax) was 5.26 ng/mL. For the same molecule, the Cmax (in vivo; both, 0.25 mg/kg, combined Day 15 mean Cmax) was 11 ng/mL, the Cmax (in vivo; both, 0.5 mg/kg, combined Day 15 mean Cmax) was 22 ng/mL and the AUC(0-t) (in vivo; both) was 120 ng·h/mL. It also gave a Cmax (in vivo; both, Cmax) of 5.79 ng/mL, an AUC(0-t) (in vivo; female, 0.25 mg/kg) of 343 ng·h/mL and a Cmax (in vivo; female, 0.25 mg/kg, Cmax) of 12.1 ng/mL. For the same molecule, the AUC(0-t) (in vivo; female, 0.5 mg/kg) was 729 ng·h/mL, the Cmax (in vivo; female, 0.5 mg/kg, Cmax) was 26.6 ng/mL and the AUC(0-t) (in vivo; female) was 141 ng·h/mL. It also gave an AUC(0-t) (in vivo; male, 0.25 mg/kg) of 335 ng·h/mL, a Cmax (in vivo; male, 0.25 mg/kg, Cmax) of 11.9 ng/mL and an AUC(0-t) (in vivo; male, 0.5 mg/kg) of 762 ng·h/mL. For the same molecule, the Cmax (in vivo; male, 0.5 mg/kg, Cmax) was 24 ng/mL, the AUC(0-t) (in vivo; male) was 107 ng·h/mL and the systemic clearance ([6]; IV, rats (greater than liver blood flow)) was “high”. It also gave an AUC(0-inf) [6, 27] of 733 ng·h/mL, an AUC(0-t) [6, 27] of 680 ng·h/mL and a clearance [6, 27] of 115 mL/min/kg. The Vd ([6]; Sprague Dawley, plasma, rat, female, single IV dose 5 mg, mean (SD), read-out: Vss) was 26.2 L/kg, the half-life [6, 27] was 3.6 h and the AUC(0-t) [6, 28] was 222 ng·h/mL. For the same molecule, the Cmax [6, 28] was 47 ng/mL, the Tmax [6, 28] was 2 h and the bioavailability [6, 28] was 33%. For the same molecule, the half-life [6, 28] was 3 h, the AUC(0-t) [6, 29] was 570 ng·h/mL and the Cmax [6, 29] was 123 ng/mL. It also gave a Tmax [6, 29] of 2 h, a bioavailability [6, 29] of 28% and a half-life [6, 29] of 2.9 h. It also gave an AUC(0-t) [6, 30] of 4650 ng·h/mL, a Cmax [6, 30] of 621 ng/mL and a Tmax [6, 30] of 6 h. The bioavailability [6, 30] was 74%, the half-life [6, 30] was 3 h and the “ST18 and FREM2 change in gene expression in vivo” value [7] was ≥ 2 fold. For the same molecule, the AUC(0-t) (LXFS 615 SCLC PDX model) was 1620 ng·h/mL, the “mean body weight loss” value ([8]; 5 mg base/kg) was < 1% and the TGI ([8]; 5 mg base/kg oral for 30 days) was 78%.
